Experimental data reported in article PMC12226733, “Evolution of iGluR ligand specificity, polyamine regulation, and ion selectivity inferred from a placozoan epsilon receptor” (Communications Biology, 2025).
Read-outs that look alike come from different tables or passages of the source.

Target: T1, GluA2 Q607S (Homo sapiens, UniProt P42262, Q607S)
T1 construct: host or cells: HEK-293T/17
Type: cell-based
Conditions: GluA2 Q-S; for normalized conductance (G-V, Figure 5g), Avg: Na vs Na; for I-V current, Na vs Na, Avg of recordings: Figure 5b

T1 sequence (P42262 25-883 Q607S): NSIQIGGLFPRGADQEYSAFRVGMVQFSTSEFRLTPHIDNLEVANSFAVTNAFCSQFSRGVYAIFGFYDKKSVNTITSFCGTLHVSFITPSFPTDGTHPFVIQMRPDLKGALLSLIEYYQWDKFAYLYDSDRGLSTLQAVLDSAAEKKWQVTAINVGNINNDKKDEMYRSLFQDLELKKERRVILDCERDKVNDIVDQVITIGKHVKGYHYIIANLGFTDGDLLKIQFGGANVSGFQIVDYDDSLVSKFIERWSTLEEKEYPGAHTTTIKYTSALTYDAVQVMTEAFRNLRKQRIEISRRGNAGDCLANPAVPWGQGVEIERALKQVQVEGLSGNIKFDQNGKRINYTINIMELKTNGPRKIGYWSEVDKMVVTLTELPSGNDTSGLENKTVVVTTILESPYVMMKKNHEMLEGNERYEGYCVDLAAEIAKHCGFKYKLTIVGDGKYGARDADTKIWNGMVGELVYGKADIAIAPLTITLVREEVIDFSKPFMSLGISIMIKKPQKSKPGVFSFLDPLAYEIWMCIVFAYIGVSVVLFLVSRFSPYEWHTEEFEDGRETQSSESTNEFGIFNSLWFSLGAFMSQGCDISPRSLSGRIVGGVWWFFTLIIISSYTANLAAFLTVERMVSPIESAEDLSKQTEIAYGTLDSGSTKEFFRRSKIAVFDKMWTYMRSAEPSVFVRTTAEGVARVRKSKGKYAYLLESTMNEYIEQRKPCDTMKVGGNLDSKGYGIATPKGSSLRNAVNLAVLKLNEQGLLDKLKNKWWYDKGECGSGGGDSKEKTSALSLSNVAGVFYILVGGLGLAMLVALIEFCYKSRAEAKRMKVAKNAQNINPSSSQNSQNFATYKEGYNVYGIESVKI

## [Na+] [Na]
Vm 0.00
  normalized conductance (G-V, Figure 5g), Avg: 0.29
  I-V current, Na vs Na, Avg of recordings: -0.0234
Vm 20.00
  normalized conductance (G-V, Figure 5g), Avg: 0.39
  I-V current, Na vs Na, Avg of recordings: 0.09
Vm 40.00
  normalized conductance (G-V, Figure 5g), Avg: 0.47
  I-V current, Na vs Na, Avg of recordings: 0.23
Vm 60.00
  normalized conductance (G-V, Figure 5g), Avg: 0.53
  I-V current, Na vs Na, Avg of recordings: 0.41
Vm 80.00
  normalized conductance (G-V, Figure 5g), Avg: 0.52
  I-V current, Na vs Na, Avg of recordings: 0.57
Vm -20.00
  normalized conductance (G-V, Figure 5g), Avg: 0.28
  I-V current, Na vs Na, Avg of recordings: -0.10
Vm -40.00
  normalized conductance (G-V, Figure 5g), Avg: 0.39
  I-V current, Na vs Na, Avg of recordings: -0.20
Vm -60.00
  normalized conductance (G-V, Figure 5g), Avg: 0.63
  I-V current, Na vs Na, Avg of recordings: -0.35
Vm -80.00
  normalized conductance (G-V, Figure 5g), Avg: 1.00
  I-V current, Na vs Na, Avg of recordings: -0.61
